Data reported in patent publication US10106515B2, “1-(cyclopent-2-en-1-yl)-3-(2-hydroxy-3-(arylsulfonyl)phenyl)urea derivatives as CXCR2 inhibitors” (GLAXOSMITHKLINE INTELLECTUAL PROPERTY DEVELOPMENT LIMITED, priority 2014, dated 2018).
Counter-ions that a name gives are not always drawn. Like-named read-outs stand apart in the source and are kept apart here.

Tests used:
recombinant human CXCR2 = biological target: T1, recombinant human CXCR2 (Homo sapiens, UniProt P25025); test: CXCR2 Tango assay; type: cell-based; settings: mean pIC50 of multiple test results; stimulated with 80 nM hCXCL1; reporter gene blue/green emission ratio; read-out: pIC50 (CXCR2 Tango assay) (converted)
T1 construct: TEV protease site; Gal4-VP16 transcription factor
T1 sequence (P25025 1-360): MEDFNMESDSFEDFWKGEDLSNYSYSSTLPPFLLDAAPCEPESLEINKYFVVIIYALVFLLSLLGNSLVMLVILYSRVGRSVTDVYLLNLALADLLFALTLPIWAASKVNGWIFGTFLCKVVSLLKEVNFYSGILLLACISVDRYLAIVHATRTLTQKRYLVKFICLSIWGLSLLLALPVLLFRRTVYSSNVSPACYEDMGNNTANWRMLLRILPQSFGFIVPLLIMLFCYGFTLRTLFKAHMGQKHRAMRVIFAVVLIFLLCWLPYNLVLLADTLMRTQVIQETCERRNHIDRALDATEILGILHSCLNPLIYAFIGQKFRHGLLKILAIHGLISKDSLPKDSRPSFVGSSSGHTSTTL
How it was run: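 Mean pIC50 comes from sigmoidal fits of the blue/green (460/530 nm) CCF4-AM ratio, normalized between hCXCL1-stimulated and DMSO controls. Compounds in 10-point dose response were incubated overnight at 37 °C with recombinant human CXCR2 Tango cells (~10,000/well) and 80 nM hCXCL1, with reporter read-out via arrestin-TEV release of Gal4-VP16.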

[1] = test system: upregulation of CD11b in GROα stimulated neutrophils in human whole blood; test: Human whole blood assay (CD11b upregulation); type: cell-based; settings: Neutrophil, inhibition of CD11b upregulation, GROα 33 nM final, flow cytometry, read-out: pIC50 (human whole blood assay) (converted)
How it was run: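 Heparinised human whole blood preincubated 15 min at 37 °C with compound (10-point, 1:3 dilutions), then stimulated with 33 nM final GROα for 15 min at 37 °C. CD11b-FITC/CD16-PE staining on ice, lysis/fixation, flow cytometry; neutrophils gated by side scatter and CD16.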

| SMILES | IC50 (recombinant human CXCR2) [nM] | IC50 [1] [nM] | IC50 ([1]; Homo sapiens) [nM] |
| --- | --- | --- | --- |
| COCC(C)S(=O)(=O)c1c(Cl)ccc(NC(=O)N[C@@H]2CCC=C2C)c1O (stereo partly drawn) [Compound 158, 1-(4-chloro-2-hydroxy-3-((1-methoxypropan-2-yl)sulfonyl)phenyl)-3-((R)-2-methylcyclopent-2-en-1-yl)urea] | ≤ 10 | 25.1 to 2510 |  |
| O=C(Nc1ccc(Cl)c(S(=O)(=O)[C@H]2C[C@@H](O)C2)c1O)NC1CCC=C1Cl (stereo partly drawn) [Compound 165, 1-(4-chloro-2-hydroxy-3-((cis-3-hydroxycyclobutyl)sulfonyl)phenyl)-3-(2-chlorocyclopent-2-en-1-yl)urea] | ≤ 10 | 25.1 to 2510 |  |
| CN(C)[C@H]1C[C@H](S(=O)(=O)c2c(Cl)ccc(NC(=O)N[C@@H]3CCC=C3Cl)c2O)C1 [Compound 184, 1-(4-chloro-3-((trans-3-(dimethylamino)cyclobutyl)sulfonyl)-2-hydroxyphenyl)-3-((R)-2-chlorocyclopent-2-en-1-yl)urea, trifluoroacetic acid salt] | ≤ 10 | 25.1 to 2510 |  |
| O=C(Nc1ccc(Cl)c(S(=O)(=O)[C@H]2C[C@H](N3CCCC3)C2)c1O)N[C@@H]1CCC=C1Cl [Compound 185, 1-(4-chloro-2-hydroxy-3-((trans-3-(pyrrolidin-1-yl)cyclobutyl)sul-fonyl)phenyl)-3-((R)-2-chlorocyclopent-2-en-1-yl)urea, trifluoroacetic acid salt] | ≤ 10 | 25.1 to 2510 |  |
| COC[C@H](C)S(=O)(=O)c1c(Cl)ccc(NC(=O)N[C@@H]2CCC=C2C)c1O [Compound 186, 1-(4-chloro-2-hydroxy-3-(((S)-1-methoxypropan-2-yl)sulfonyl)phenyl)-3-((R)-2-methylcyclopent-2-en-1-yl)urea] | ≤ 1 | 25.1 to 2510 |  |
| CC1=CCC[C@H]1NC(=O)Nc1ccc(C#N)c(S(=O)(=O)C(C)(C)C)c1O [Compound 191, (R)-1-(3-(tert-butylsulfonyl)-4-cyano-2-hydroxyphenyl)-3-(2-methylcyclopent-2-en-1-yl)urea] | ≤ 1 | 25.1 to 2510 |  |
| CC1=CCC[C@H]1NC(=O)Nc1ccc(Cl)c(S(=O)(=O)[C@H]2C[C@H](N3CCCC3)C2)c1O [Compound 192, 1-(4-chloro-2-hydroxy-3-((trans-3-(pyrrolidin-1-yl)cyclobutyl)sulfonyl)phenyl)-3-((R)-2-methylcyclopent-2-en-1-yl)urea] | ≤ 1 |  | 25.1 to 2510 |
| CC1=CCC[C@H]1NC(=O)Nc1ccc(Cl)c(S(=O)(=O)[C@H]2C[C@H](N(C)C)C2)c1O [Compound 193, 1-(4-chloro-3-((trans-3-(dimethylamino)cyclobutyl)sulfonyl)-2-hydroxyphenyl)-3-((R)-2-methylcyclopent-2-en-1-yl)urea] | ≤ 1 | 25.1 to 2510 |  |
| CC1=CCC[C@H]1NC(=O)Nc1ccc(Cl)c(S(=O)(=O)C(C)(F)F)c1O [Compound 194, (R)-1-(4-chloro-3-((1,1-difluoroethyl)sulfonyl)-2-hydroxyphenyl)-3-(2-methylcyclopent-2-en-1-yl)urea] | ≤ 1 | 25.1 to 2510 |  |
| CC1=CCC[C@H]1NC(=O)Nc1ccc(Cl)c(S(=O)(=O)N2CCNCC2)c1O [Compound 199, (R)-1-(4-chloro-2-hydroxy-3-(piperazin-1-ylsulfonyl)phenyl)-3-(2-methylcyclopent-2-en-1-yl)urea, trifluoroacetic acid salt] | ≤ 10 | 25.1 to 2510 |  |
| CCN1CCC(F)(S(=O)(=O)c2c(Cl)ccc(NC(=O)N[C@@H]3CCC=C3Cl)c2O)CC1 [Compound 200, (R)-1-(4-chloro-3-((1-ethyl-4-fluoropiperidin-4-yl)sulfonyl)-2-hydroxphenyl)-3-(2-chlorocyclopent-2-en-1-yl)urea] | ≤ 1 | 25.1 to 2510 |  |
